In assay [1] the target is T1, proMMP9(67-444;ΔFnII) (SEQ ID NO:5) (Homo sapiens, UniProt P14780, DEL216-390).
T1 construct: start methionine (N); made in house; host or cells: E. coli BL21(DE3) RIL
T1 sequence (P14780 with tags, fused parts or gaps DEL216-390): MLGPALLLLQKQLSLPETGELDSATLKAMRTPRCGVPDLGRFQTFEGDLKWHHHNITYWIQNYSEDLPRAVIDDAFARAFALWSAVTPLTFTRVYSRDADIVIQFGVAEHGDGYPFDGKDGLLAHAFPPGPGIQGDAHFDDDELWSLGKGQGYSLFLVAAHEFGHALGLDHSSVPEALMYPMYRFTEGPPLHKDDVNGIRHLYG
Nature of the assay: ThermoFluor binding assay with proMMP9(67-444;ΔFnII). The procedure, abridged:
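Thermal shift with 3.5 μM desalted proMMP9(67-444;ΔFnII) and 50 μM 1,8-ANS in 50 mM HEPES pH 7.0, 100 mM NaCl, 0.001% Tween-20, 2.5 mM MgCl2, 300 μM CaCl2; compounds serially diluted. Heated 40–90 °C at 1 °C/min, fluorescence at 500 nm; Tm fit, binding modelled using DSC-derived thermodynamic parameters.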

In assay [2] the target is T2, proMMP9(20-445;ΔFnII) (SEQ ID NO:6) (Homo sapiens, UniProt P14780, DEL216-390).
T2 construct: start methionine (N); made in house; host or cells: E. coli BL21(DE3) RIL
T2 sequence (P14780 with tags, fused parts or gaps DEL216-390): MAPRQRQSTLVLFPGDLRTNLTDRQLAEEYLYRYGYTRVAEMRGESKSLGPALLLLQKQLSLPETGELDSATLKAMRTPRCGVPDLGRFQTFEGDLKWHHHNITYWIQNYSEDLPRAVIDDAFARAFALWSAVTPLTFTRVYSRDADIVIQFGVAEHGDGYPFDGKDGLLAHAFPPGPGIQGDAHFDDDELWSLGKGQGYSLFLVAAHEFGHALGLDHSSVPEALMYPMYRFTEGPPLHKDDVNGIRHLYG
Nature of the assay: ThermoFluor binding assay with proMMP9(20-445;ΔFnII). A digest of the protocol: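 Thermal-shift binding using 2.8 μM proMMP9(20-445;ΔFnII) with 50 μM 1,8-ANS in 50 mM HEPES pH 7.0, 100 mM NaCl, 0.001% Tween-20, 2.5 mM MgCl2, 300 μM CaCl2. Compound serially diluted; heated 40–90 °C at 1 °C/min, fluorescence 500 nm. Tm shifts fitted using DSC/ThermoFluor-derived thermodynamic parameters.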
In general terms: DSF heats the sample and reads unfolding from a dye or from intrinsic fluorescence.

Assay [3] addresses T3, proMMP13(1-268) (SEQ ID NO:7) (Homo sapiens, UniProt P45452).
T3 construct: 6xHis (C); made in house; host or cells: HEK293 (transient, secreted)
As to the kind of experiment: ThermoFluor binding assay with proMMP13(1-268). How it is done:
The ThermoFluor® (TF) assay is a 384-well plate-based binding assay that measures thermal stability of proteins (Biomol Screen 2001, 6, 429-40; Biochemistry 2005, 44, 5258-66). The experiments were carried out using instruments available from Johnson & Johnson Pharmaceutical Research & Development, LLC. TF dye used in all experiments was […] (1,8-ANS) (Invitrogen: A-47).
Compounds were arranged in a pre-dispensed plate (Greiner Bio-one: 781280), wherein compounds were serially diluted in 100% DMSO across 11 columns within a series. Columns 12 and 24 were used as DMSO reference and contained no compound. For multiple compound concentration-response experiments, the compound aliquots ([…]) were robotically predispensed directly into black 384-well polypropylene PCR microplates (Abgene: TF-0384/k) using a Cartesian Hummingbird liquid handler (DigiLab, Holliston, Mass.). Following compound dispense, protein and dye solutions were added to achieve the final assay volume of 3 μL. The assay solutions were overlayed with 1 μL of silicone oil (Fluka, type DC 200: 85411) to prevent evaporation.
Assay plates were robotically loaded onto a thermostatically controlled PCR-type thermal block and then heated from 40 to 90° C. at a ramp-rate of 1° C./min for all experiments. Fluorescence was measured by continuous illumination with UV light (Hamamatsu LC6) supplied via fiber optics and filtered through a band-pass filter (380-400 nm; >60D cutoff). Fluorescence emission of the entire 384-well plate was detected by measuring light intensity using a CCD camera (Sensys, Roper Scientific) filtered to detect 500±25 nm, resulting in simultaneous and independent readings of all 384 wells. A single image with 20-sec exposure time was collected at each temperature, and the sum of the pixel intensity in a given area of the assay plate was recorded vs temperature and fit to standard equations to yield the Tm (J Biomol Screen 2001, 6, 429-40).
Thermodynamic parameters necessary for fitting compound binding for each proMMP were estimated by differential scanning calorimetry (DSC) and from ThermoFluor® data. The heat capacity of unfolding for each protein was estimated from the molecular weight and from ThermoFluor® dosing data.
ThermoFluor® with proMMP13(1-268) (SEQ ID NO: 7)
The proMMP13(1-268) (SEQ ID NO:7) protein sample preparations included a desalting buffer exchange step via a PD-10 gravity column (GE Healthcare). The desalting buffer exchange was performed prior to diluting the protein to the final assay concentration of 3.5 μM. The concentration of proMMP13(1-268) (SEQ ID NO:7) was estimated spectrophotometrically based on a calculated extinction coefficient of ε280=37000 M^−1cm^−1, a calculated molecular weight of 30.8 kDa, and calculated pI of 5.33. ThermoFluor® reference conditions were defined as follows: 100 μg/mL proMMP13(1-268) (SEQ ID NO:7), 25 μM 1,8-ANS, pH 7.0 Buffer (50 mM HEPES pH 7.0, 100 mM NaCl, 0.001% Tween-20, 2.5 mM MgCl2, 300 μM CaCl2). The thermodynamic parameters for proMMP13(1-268) (SEQ ID NO:7) are as follows: Tm (° C.)=67 (+/−0.1), ΔUH(Tm) (cal mol^−1)=107000(+/−5000), ΔUS(Tm) (cal mol^−1 K^−1)=318, ΔUCp (cal mol^−1 K^−1)=2600.

Assay [4] addresses T4, full-length proMMP9(1-707) (SEQ ID NO:1), activation by catalytic MMP3 (Homo sapiens, UniProt P14780, R574P).
T4 construct: made in house; host or cells: HEK293 (proMMP9, secreted); E. coli (MMP3)
As to the kind of experiment: proMMP9/MMP3 P126 Activation Assay. In kind it is biochemical. How it is done: proMMP9/MMP3 P126 Activation Assay
The reaction volume was 50 μL. […] Reactivity of residual MMP3 towards P-126 substrate was minimal under these conditions.

Counter-ions that a name gives are not always drawn.

T4 sequence (P14780 20-707 R574P): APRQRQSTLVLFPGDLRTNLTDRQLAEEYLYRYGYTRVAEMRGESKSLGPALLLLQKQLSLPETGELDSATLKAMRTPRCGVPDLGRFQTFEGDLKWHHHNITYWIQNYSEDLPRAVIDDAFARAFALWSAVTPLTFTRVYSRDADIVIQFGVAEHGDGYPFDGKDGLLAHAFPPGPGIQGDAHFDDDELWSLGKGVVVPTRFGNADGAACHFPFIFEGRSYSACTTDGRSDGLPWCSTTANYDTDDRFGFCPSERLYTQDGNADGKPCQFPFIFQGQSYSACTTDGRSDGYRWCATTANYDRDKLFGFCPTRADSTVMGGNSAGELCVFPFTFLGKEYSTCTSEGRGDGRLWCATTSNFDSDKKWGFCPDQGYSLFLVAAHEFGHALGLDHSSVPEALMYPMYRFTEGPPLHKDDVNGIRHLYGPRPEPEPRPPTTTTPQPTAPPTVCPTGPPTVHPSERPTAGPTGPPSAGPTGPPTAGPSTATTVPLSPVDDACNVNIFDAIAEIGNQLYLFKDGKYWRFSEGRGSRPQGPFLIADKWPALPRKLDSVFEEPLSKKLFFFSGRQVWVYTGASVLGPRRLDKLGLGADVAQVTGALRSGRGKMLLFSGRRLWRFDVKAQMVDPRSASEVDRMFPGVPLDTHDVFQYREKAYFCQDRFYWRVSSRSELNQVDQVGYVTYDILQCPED

Usually Kd stands for a measure of binding affinity in units of concentration. High values mean weaker binding, low ones tighter binding. What is called IC50 is the point on the concentration scale where inhibition reaches its midpoint. Low readings indicate greater potency, high ones weaker potency. As for `CC(C)Oc1ccc(C(N)=O)cc1Nc1nc(-c2cccnc2)cs1` [Example 1, 4-Isopropoxy-3-(4-pyridin-3-yl-thiazol-2-ylamino)-benzamide.HBr], the results for the Kd in assay [1], in assay [2] and in assay [3] were 1000 nM, 160 nM and 310 nM, respectively. Besides, in assay [4], the IC50 was determined as 360 nM.
As for `CCOc1ccc(C(N)=O)cc1Nc1nc(-c2cccnc2)cs1` [Example 2, 4-Ethoxy-3-(4-pyridin-3-yl-thiazol-2-ylamino)-benzamide.TFA], the dissociation constant (Kd) in assay [1] stood at 1500 nM; in assay [2], 730 nM; in assay [3], 2600 nM. The compound further yielded an IC50 in assay [4] of 740 nM.
As for `Cc1cc2cccc(Nc3nc(-c4cccnc4)cs3)c2o1` [Example 3, (2-Methyl-benzofuran-7-yl)-(4-pyridin-3-yl-thiazol-2-yl)-amine], the dissociation constant Kd was 38000 nM in assay [1], 33000 nM in assay [2] and greater than 95000 nM in assay [3]. In addition, the half-inhibitory concentration (IC50) in assay [4] is roughly 5000 nM.
As for `COc1ccc(C(N)=O)cc1Nc1nc(-c2cccnc2)cs1` [Example 4, 4-Methoxy-3-(4-pyridin-3-yl-thiazol-2-ylamino)-benzamide.HBr], the Kd in assay [1] was found to be 3300 nM; in assay [2] it was 1300 nM; in assay [3] it was 12000 nM. Further, the IC50 in assay [4] amounted to 5000 nM.
Turning to `COc1ccc(CC(N)=O)cc1Nc1nc(-c2cccnc2)cs1` [Example 5, 2-[4-Methoxy-3-(4-pyridin-3-yl-thiazol-2-ylamino)-phenyl]-acetamide], the Kd is 33000 nM in assay [1], 53000 nM in assay [2] and greater than 95000 nM in assay [3]. The IC50 in assay [4] was roughly 19000 nM.
With `COc1ccc(C#N)cc1Nc1nc(-c2cccnc2)cs1` [Example 9, 4-Methoxy-3-(4-pyridin-3-yl-thiazol-2-ylamino)-benzonitrile.HBr], the results for the dissociation constant Kd in assay [1], in assay [2] and in assay [3] were 43000 nM, 7400 nM and 18000 nM, respectively. The compound also showed an IC50 in assay [4] of 2600 nM.
Turning to `COc1ccc(S(N)(=O)=O)cc1Nc1nc(-c2cccnc2)cs1` [Example 12, 4-Methoxy-3-(4-pyridin-3-yl-thiazol-2-ylamino)-benzenesulfonamide.TFA], the equilibrium dissociation constant (Kd) in assay [1] is 29000 nM; in assay [2], 17000 nM; in assay [3] it was greater than 95000 nM. Moreover, the half-inhibitory concentration (IC50) in assay [4] is greater than 20000 nM.
Regarding `CC(C)Oc1ccc(S(N)(=O)=O)cc1Nc1nc(-c2cccnc2)cs1` [Example 13, 4-Isopropoxy-3-(4-pyridin-3-yl-thiazol-2-ylamino)-benzenesulfonamide.TFA], the figures for the dissociation constant (Kd) in assay [1], in assay [2] and in assay [3] were 10000 nM, 2300 nM and 1200 nM, respectively. The compound further yielded a 50% inhibitory concentration (IC50) in assay [4] of 2400 nM.
In the case of `CC(C)Oc1ccc(C(N)=O)cc1Nc1nc(-c2ccccn2)cs1` [Example 14, 4-Isopropoxy-3-(4-pyridin-2-yl-thiazol-2-ylamino)-benzamide], the dissociation constant Kd worked out at 1900 nM in assay [1], 210 nM in assay [2] and 930 nM in assay [3]. The same compound returned an IC50 in assay [4] of 500 nM.
Consider `CC(C)Oc1ccc(C(N)=O)cc1Nc1nc(-c2ccncc2)cs1` [Example 15, 4-Isopropoxy-3-(4-pyridin-4-yl-thiazol-2-ylamino)-benzamide.HBr], for which the Kd in assay [1] came to 470 nM; in assay [2], 250 nM; in assay [3] it was 730 nM. In assay [4], the IC50 amounted to 280 nM.
With `NS(=O)(=O)c1ccc(OC(F)(F)F)c(Nc2nc(-c3cccnc3)cs2)c1` [Example 59, 3-(4-Pyridin-3-yl-thiazol-2-ylamino)-4-trifluoromethoxy-benzenesulfonamide], the Kd in assay [2] was 36000 nM; in assay [3] it was greater than 95000 nM. For the same compound, the half-inhibitory concentration (IC50) in assay [4] is greater than 20000 nM.
Consider `CC(C)Oc1ccc(S(N)(=O)=O)cc1Nc1nc(-c2ccc(NCCCn3ccnc3)nc2)cs1` [Example 63, 3-((4-(6-((3-(1H-Imidazol-1-yl)propyl)amino)pyridin-3-yl)thiazol-2-yl)amino)-4-isopropoxybenzenesulfonamide.TFA], for which the values for the equilibrium dissociation constant (Kd) in assay [1] and in assay [2] were 280 nM and 210 nM, respectively. In addition, the half-maximal inhibitory concentration (IC50) in assay [4] is 150 nM.
On the same counts, the results for `CC(C)Oc1ccc(S(N)(=O)=O)cc1Nc1nc(-c2ccc(N3CCNC(=O)C3)nc2)cs1` [Example 64, 4-Isopropoxy-3-((4-(6-(3-oxopiperazin-1-yl)pyridin-3-yl)thiazol-2-yl)amino)benzenesulfonamide.TFA] are 2500 nM, 260 nM and 120 nM.
As for `CC(C)Oc1ccc(S(N)(=O)=O)cc1Nc1nc(-c2ccc(C(=O)NC3CC(C)(C)N(C)C(C)(C)C3)nc2)cs1` [Example 84, 5-(2-((2-Isopropoxy-5-sulfamoylphenyl)amino)thiazol-4-yl)-N-(1,2,2,6,6-pentamethylpiperidin-4-yl)picolinamide.TFA], the Kd was determined as 200 nM in assay [1] and 250 nM in assay [2]. Moreover, half-maximal inhibition in assay [4] (IC50) required 260 nM.
As for `CC(C)CCNC(=O)c1ccc(-c2csc(Nc3cc(S(N)(=O)=O)ccc3OC(C)C)n2)cn1` [Example 85, N-Isopentyl-5-(2-((2-isopropoxy-5-sulfamoylphenyl)amino)thiazol-4-yl)picolinamide.TFA], the values for the Kd in assay [1] and in assay [2] were 32000 nM and 4600 nM, respectively. The compound further registered a half-maximal inhibitory concentration (IC50) in assay [4] of roughly 20000 nM.
Take `COC/C=C/c1ccc(-c2csc(Nc3cc(S(N)(=O)=O)ccc3OC(C)C)n2)cn1` [Example 93, (E)-4-Isopropoxy-3-((4-(6-(3-methoxyprop-1-en-1-yl)pyridin-3-yl)thiazol-2-yl)amino)benzenesulfonamide.TFA]: the Kd in assay [1] was found to be 3400 nM; in assay [2], 580 nM. Also, in assay [4], the IC50 amounted to 520 nM.
In the case of `COCCCc1ccc(-c2csc(Nc3cc(S(N)(=O)=O)ccc3OC(C)C)n2)cn1` [Example 94, 4-Isopropoxy-3-((4-(6-(3-methoxypropyl)pyridin-3-yl)thiazol-2-yl)amino)benzenesulfonamide.TFA], the equilibrium dissociation constant (Kd) in assay [1] was 1300 nM; in assay [2] it was 430 nM. This compound displayed an IC50 in assay [4] of 520 nM.

The values above are taken from US20120129843A1, “PYRIDYL-THIAZOLYL INHIBITORS OF PRO-MATRIX METALLOPROTEINASE ACTIVATION” (priority 2010, published 2012).
